Assay results from patent US8586751B2, “Nicotinamide compounds useful as kinase modulators” (Bristol-Myers Squibb Company, priority 2009, dated 2013).

What follows are molecules tested against T1, human recombinant Btk (Homo sapiens, UniProt Q06187) (assay: Human Recombinant Btk Enzyme Assay (LLE_BTK)).
T1 construct: purchased Invitrogen Corporation
T1 sequence (Q06187 whole entry): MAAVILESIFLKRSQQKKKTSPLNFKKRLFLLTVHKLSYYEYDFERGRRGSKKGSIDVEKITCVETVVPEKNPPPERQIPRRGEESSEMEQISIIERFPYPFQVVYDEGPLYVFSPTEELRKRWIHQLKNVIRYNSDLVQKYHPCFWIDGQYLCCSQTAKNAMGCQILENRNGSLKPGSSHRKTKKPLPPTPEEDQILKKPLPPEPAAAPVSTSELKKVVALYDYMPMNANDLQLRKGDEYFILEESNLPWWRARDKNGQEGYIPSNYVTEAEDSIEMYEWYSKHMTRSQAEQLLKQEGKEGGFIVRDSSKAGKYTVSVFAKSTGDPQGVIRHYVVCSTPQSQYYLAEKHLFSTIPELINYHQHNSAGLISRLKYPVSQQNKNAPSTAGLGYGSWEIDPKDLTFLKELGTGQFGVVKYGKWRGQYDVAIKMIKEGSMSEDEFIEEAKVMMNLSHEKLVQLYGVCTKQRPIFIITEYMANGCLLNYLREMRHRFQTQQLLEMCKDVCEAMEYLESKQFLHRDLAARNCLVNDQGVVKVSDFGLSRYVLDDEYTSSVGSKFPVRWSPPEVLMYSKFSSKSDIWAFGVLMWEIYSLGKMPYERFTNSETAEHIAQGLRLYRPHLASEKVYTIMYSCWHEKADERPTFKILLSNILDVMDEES
Type: biochemical
Experimental: Human Recombinant Btk Enzyme Assay
To V-bottom 384-well plates were added test compounds, human recombinant Btk (1 nM, Invitrogen Corporation), fluoresceinated peptide (1.5 μM), ATP (20 μM), and assay buffer (20 mM HEPES pH 7.4, 10 mM MgCl2, 0.015% Brij35 and 4 mM DTT in 1.6% DMSO), with a final volume of 30 μL. After incubating at room temperature for 60 min, the reaction was terminated by adding 45 μl of 35 mM EDTA to each sample. The reaction mixture was analyzed on the Caliper LABCHIP® 3000 (Caliper, Hopkinton, Mass.) by electrophoretic separation of the fluorescent substrate and phosphorylated product. Inhibition data were calculated by comparison to no enzyme control reactions for 100% inhibition and no inhibitor controls for 0% inhibition. Dose response curves were generated to determine the concentration required inhibiting 50% of kinase activity (IC50). Compounds were dissolved at 10 mM in dimethylsulfoxide (DMSO) and evaluated at eleven concentrations.
Using this assay, the following IC50 values derived by non-linear regression analysis were determined and compared to those values of certain compounds in U.S. Publication No. 2007/078136 and U.S. Publication No. 2008/045536.
Cc1csc(NC(=O)N[C@@H]2CCCN(c3ccc(C(N)=O)c(Nc4ccc(N5CCOCC5)cc4)n3)C2)n1 [Example 337] gave an IC50 of 760 nM.
For CS(=O)(=O)Nc1cccc(Nc2nc(-c3ccc(Cl)cc3)ccc2C(N)=O)c1 [Example 375], the IC50 was 1200 nM.
Molecule CNC(=O)c1ccc(N2CCC[C@@H](NC(=O)c3ccc(C(C)(C)C)cc3)C2)nc1Nc1ccc(C(=O)N2CCOCC2)cc1 [Example 442] has an IC50 of 2600 nM.
CC(C)(C)OC(=O)N[C@@H]1CCCN(c2ccc(C(N)=O)c(Nc3ccccc3)n2)C1 [Example 295] was tested, and the IC50 was 1700 nM.
NC(=O)c1ccc(N2CCCCC2)nc1Nc1ccc(C(=O)Nc2ccccc2)cc1 [Example 323] was tested, and the IC50 was 780 nM.
For CC(C)(C)OC(=O)c1ccc(Nc2nc(N3CCCCC3)ccc2C(N)=O)cc1 [Example 314], the IC50 was 1800 nM.
NC(=O)c1ccc(N2CCC[C@@H](C(=O)O)C2)nc1Nc1ccc(C(=O)N2CCOCC2)cc1 [Example 165] showed an IC50 of 2900 nM.
For Cc1ccc(NC(=O)N[C@@H]2CCCN(c3ccc(C(N)=O)c(Nc4ccccc4)n3)C2)cc1C [Example 300], the IC50 was 1300 nM.
For NC(=O)c1cc(F)c(N2CCOCC2)nc1Nc1cccc(CS(=O)(=O)N2CCCC2)c1 [Example 533], the IC50 was 22000 nM.
Molecule NC(=O)c1ccc(N2CCC[C@@H](N)C2)nc1Nc1ccccc1 [Example 299] has an IC50 of 1500 nM.
Molecule COc1cc(Nc2nc(N3CCC[C@@H](NC(=O)c4ccccc4)C3)c(F)cc2C(N)=O)ccc1OCCNC1CC1 [Example 511] has an IC50 of 730 nM.
CC(=O)c1ccccc1-c1ccc(C(N)=O)c(Nc2ccc(C(=O)N3CCOCC3)cc2)n1 [Example 132] showed an IC50 of 1000 nM.
CC(C)(C)OC(=O)N[C@@H]1CCN(c2ccc(C(N)=O)c(Nc3ccc(C(=O)N4CCOCC4)cc3)n2)C1 [Example 44] was tested, and the IC50 was 750 nM.
In the case of CC(C)(C)c1ccc(C(=O)Nc2cccc(-c3ccc(C(N)=O)c(Nc4ccc(C(=O)N5CCOCC5)cc4)n3)c2)cc1 [Example 37], the IC50 is reported as 1400 nM.
Molecule NC(=O)c1ccc(N2CC[C@@H](NC(=O)c3ccc(C(F)(F)F)cc3)C2)nc1Nc1ccc(C(=O)N2CCOCC2)cc1 [Example 50] has an IC50 of 740 nM.
Cc1ccc(NC(=O)c2ccc(C(C)(C)C)cc2)cc1-c1ccc(C(N)=O)c(Nc2ccc(C(=O)N3CCOCC3)cc2)n1 [Example 162] showed an IC50 of 1400 nM.
NC(=O)c1cc(F)c(N2CCOCC2)nc1Nc1cccc(N(S(=O)(=O)CCCCl)S(=O)(=O)CCCCl)c1 [Example 535] showed an IC50 of 980 nM.
In the case of NC(=O)c1cc(F)c(N2CCCCC2)nc1Nc1ccc(F)cc1 [Example 15, 5-Fluoro-2-(4-fluorophenylamino)-6-(piperidin-1-yl)nicotinamide], the IC50 is reported as 870 nM.
NC(=O)c1ccc(-c2ccc(Cl)c(C(F)(F)F)c2)nc1Nc1ccc(C(=O)N2CCOCC2)cc1 [Example 143] gave an IC50 of 1200 nM.
NC(=O)c1ccc(N2CCNCC2)nc1Nc1ccc(C(=O)N2CCOCC2)cc1 [Example 10, 2-(4-(Morpholine-4-carbonyl)phenylamino)-6-(piperazin-1-yl)nicotinamide] gave an IC50 of 1800 nM.
CN(C(=O)Nc1ccccc1)c1cccc(Nc2nc(N3CCOCC3)c(F)cc2C(N)=O)c1 [Example 529] showed an IC50 of 1000 nM.
With CNc1cccc(Nc2nc(-c3ccc(Cl)cc3)ccc2C(N)=O)c1 [Example 380] the IC50 was 3200 nM.
With N#Cc1ccc(Nc2nc(N3CCC[C@@H](N)C3)ccc2C(N)=O)cc1 [Example 302] the IC50 was 880 nM.
Molecule CN(c1cccc(Nc2nc(N3CCOCC3)c(F)cc2C(N)=O)c1)S(=O)(=O)c1cccc2ccccc12 [Example 538] has an IC50 of 1200 nM.
CN(c1cccc(Nc2nc(-c3ccc(Cl)cc3)ccc2C(N)=O)c1)S(=O)(=O)Cc1ccccc1 [Example 376] was tested, and the IC50 was 6900 nM.
NC(=O)c1ccc(N2CC[C@@H](N)C2)nc1Nc1ccc(C(=O)N2CCOCC2)cc1 [Example 45] gave an IC50 of 2100 nM.
NC(=O)c1ccc(NCc2ccccc2)nc1Nc1ccccc1 [Example 298] gave an IC50 of 12000 nM.
Work on CC(C)(C)c1ccc(NC(=O)[C@@H]2CCCN(c3ccc(C(N)=O)c(Nc4ccc(C(=O)N5CCOCC5)cc4)n3)C2)cc1 [Example 164] yielded an IC50 of 2700 nM.
